Source: patent publication US11434240B2, “TYK2 inhibitors and uses thereof” (Nimbus Lakshmi, Inc., priority 2015, dated 2022)

How the values were obtained:
[1] = system: Tyk2-pSTAT4 (IL-12 induced pSTAT4); test: IL-12 induced pSTAT4 in human PBMC; type: cell-based; details: 0.5 h, 1.7 ng/mL IL-12 for 30 minutes, legend words it as IC50
Procedure: (§1) Human PBMC are isolated from buffy coat and are stored frozen for assays as needed. Cells for assay are thawed and resuspended in complete media containing serum, then cells are diluted to 1.67 E6 cells/ml so that 120 ul per well is 200,000 cells. 15 ul of compound or DMSO is added to the well at the desired concentrations and incubated at 1 hr at 37 C. 15 ul of stimulus (final concentration of 1.7 ng/mL IL-12) is added for 30 minutes prior to pSTAT4 and total STAT4 analysis using cell lysates prepared and analyzed by MSD reagents as per manufacturer protocol. The final DMSO concentration of compound in the assay is 0.1%.

[2] = system: JAK2-pSTAT5 (GM-CSF induced pSTAT5); test: GM-CSF induced pSTAT5 in human PBMC; type: cell-based; details: 20 min, 5 ng/mL GM-CSF for 20 minutes, legend words it as IC50
Procedure: as §1
Cells are prepared for analysis as in the above procedure and 15 ul of GM-CSF (final concentration 5 ng/mL) is added for 20 minutes prior to pSTAT5 and total STAT5 analysis using cell lysates prepared and analyzed by MSD reagents as per manufacturer protocol. The final DMSO concentration of compound in the assay is 0.1%.

[3] = target: JAK2 (Invitrogen) kinase (Homo sapiens (Human), UniProt O60674); test: JAK2 radioactive kinase assay; type: biochemical; details: ATP at 10 μM
JAK2 (Invitrogen) kinase, sequence (O60674 whole entry): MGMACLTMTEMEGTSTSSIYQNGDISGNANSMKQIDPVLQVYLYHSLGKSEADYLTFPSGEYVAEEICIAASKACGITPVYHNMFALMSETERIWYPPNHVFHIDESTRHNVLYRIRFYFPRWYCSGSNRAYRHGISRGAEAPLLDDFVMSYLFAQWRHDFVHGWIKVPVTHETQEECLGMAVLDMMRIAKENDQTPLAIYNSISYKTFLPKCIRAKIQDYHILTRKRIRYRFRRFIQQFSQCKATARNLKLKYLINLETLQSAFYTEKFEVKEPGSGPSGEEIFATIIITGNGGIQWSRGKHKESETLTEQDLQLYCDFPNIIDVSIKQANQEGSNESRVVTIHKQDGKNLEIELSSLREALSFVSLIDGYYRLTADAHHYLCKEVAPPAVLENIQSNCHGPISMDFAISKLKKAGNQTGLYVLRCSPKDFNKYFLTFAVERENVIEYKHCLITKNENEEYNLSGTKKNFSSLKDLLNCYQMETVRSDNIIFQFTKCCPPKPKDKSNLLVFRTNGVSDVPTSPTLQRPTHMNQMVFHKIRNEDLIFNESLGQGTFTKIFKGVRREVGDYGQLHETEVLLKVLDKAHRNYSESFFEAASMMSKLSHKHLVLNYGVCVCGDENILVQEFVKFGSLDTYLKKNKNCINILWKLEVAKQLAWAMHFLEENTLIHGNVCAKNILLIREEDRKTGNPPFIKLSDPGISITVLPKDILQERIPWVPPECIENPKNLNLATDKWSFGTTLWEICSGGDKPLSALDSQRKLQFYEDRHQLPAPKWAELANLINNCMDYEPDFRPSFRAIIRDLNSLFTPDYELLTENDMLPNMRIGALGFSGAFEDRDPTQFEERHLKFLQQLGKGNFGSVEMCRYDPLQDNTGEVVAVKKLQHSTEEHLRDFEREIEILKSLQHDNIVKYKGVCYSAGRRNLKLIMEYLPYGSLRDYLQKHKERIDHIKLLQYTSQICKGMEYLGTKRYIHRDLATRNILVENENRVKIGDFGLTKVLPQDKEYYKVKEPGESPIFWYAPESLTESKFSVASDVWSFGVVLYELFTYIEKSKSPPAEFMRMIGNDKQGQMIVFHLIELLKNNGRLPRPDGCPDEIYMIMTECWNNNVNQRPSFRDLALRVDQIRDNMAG
Procedure: Peptide substrate, [KKSRGDYMTMQIG], (20 μM) is prepared in reaction buffer (20 mM Hepes pH 7.5, 10 mM MgCl2, 1 mM EGTA, 0.02% Brij35, 0.02 mg/mL BSA, 0.1 mM […], 2 mM DTT, 1% DMSO. TYK2 (Invitrogen) kinase is added, followed by compounds in DMSO. ^33PATP is added to initiate the reaction with ATP at 10 μM. Kinase reaction is incubated for 120 min at room temp and reactions are spotted onto P81 ion exchange paper (Whatman #3698-915), and then washed extensively in 0.75% phosphoric acid, prior to reading the radioactivity counts. For JAK2 (Invitrogen) kinase assay the peptide substrate poly[Glu:Tyr](4:1), 0.2 mg/ml is used, in the reaction carried out the same as for TYK2.

In the case of `N#Cc1cccc(F)c1-c1cc(-n2ccc(N3CCC(N4CCOCC4)CC3)n2)c2c(n1)CNC2=O` [I-59, 3-fluoro-2-(4-(3-(4-morpholinopiperidin-1-yl)-1H-pyrazol-1-yl)-5-oxo-6,7-dihydro-5H-pyrrolo[3,4-b]pyridin-2-yl)benzonitrile], the EC50 [1] is reported as 0.1 to 2 µM and the EC50 ([2]; Homo sapiens, PBMC) is reported as 0.1 to 2 µM.
Work on `CO[C@@H]1CN(c2ccn(-c3cc(-c4c(F)cccc4C#N)nc4c3C(=O)NC4)n2)C[C@@H]1O` [I-154, 3-fluoro-2-(4-(3-((3S,4R)-3-hydroxy-4-methoxypyrrolidin-1-yl)-1H-pyrazol-1-yl)-5-oxo-6,7-dihydro-5H-pyrrolo[3,4-b]pyridin-2-yl)benzonitrile] yielded a Ki [3] of 0.0001 to 0.01 µM.
Work on `CN1CCN(c2ccn(-c3cc(-c4c(F)cccc4F)nc4c3C(=O)NC4)n2)CC1` [I-5, 2-(2,6-difluorophenyl)-4-(3-(4-methylpiperazin-1-yl)-1H-pyrazol-1-yl)-6,7-dihydro-5H-pyrrolo[3,4-b]pyridin-5-one] yielded an EC50 [2] greater than 2 µM.
